Columns and labels:
Assay type in all cases: cell-based
GSC83 and GBM43 cells = assay: Annexin V/propidium iodide flow cytometry after NSC, IR, TMZ alone or combined; details: NSC combined with IR or/and TMZ vs single treatments, 48 hours
[1] = system: mTORC1 and mTORC2 activity in GSC M83 and JK83 cells; assay: Immunoblot of mTORC1 and mTORC2 activity in GSCs; details: GSC83 and JK83 cells, 72 hr
Description: FIG. 5. A mTORC1/2 inhibitor AZD2014 inhibited cell survival, mTORC1 and mTORC2 activities in GSCs and glioma cells. (A) GSC M83 and JK83 and glioma cells U87 were treated with indicated concentration of AZD2014 for 72 h, then cell viability was evaluated. (B) GSC M83 and JK83 were treated with the indicated concentration of AZD2014 for 1 hr, or with 2 μM AZD2014 for the specified time. Cells were collected for immunoblot analysis. β-actin was used as a loading control; Results are representative of 2 independent experiments. *P<0.05, **P<0.01, paired two-way Student's t-test. Data are representative from three independent experiments with similar results.
FIG. 6. NSC enhanced the cytotoxicity of a mTORC1/2 inhibitor AZD2014 in GSCs. (A) GSC M83 and JK83 were exposed to DMSO control vs AZD2014 vs NSCs vs AZD2014 in combination with NSC for 72 hr. Cells were collected for immunoblot analysis using indicated antibodies. (B) Immunofluorescence analyses for LC3B puncta in GSC M83 and JK83 cells with indicated treatments. (C and D) GSC M83 and JK83 and/or neural progenitor cells (NPC) were treated as indicated in (A), cell viability was tested at 72 h after treatment (C), and cell apoptosis was measured by Annexin V FACS assay 48 h after treatment. Data are representative from three independent experiments with similar results.
IB assays were performed as previously described (Huang et al., 2016b). Specific antibodies were used according to the manufacturer's instructions: LC3B (#3868S), pAKT (Ser473; 4060), pAKT(Thr308; 4056), AKT (4691), pS6(S235/236; 2211), S6 (2317), phosphorylated 4E-binding protein 1 (p4EBP1) (Thr37/46; 2855), 4EBP1 (9644), p-mTOR (Ser2448; 2971S), p-mTOR (Ser2481; 2974S), mTOR (2972S), pULK1(Ser317; 14202T), pULK1 (Ser757; 8054T), ULK1(6439), LAMP2 (49067S) were from Cell Signaling Technology. Anti-β-actin (SC-47778) and anti-SQSTM1/p62 (SC-28359) antibodies were from Santa Cruz Biotechnology. An anti-Ki-67 antibody (AB9260) was from EMD Millipore.
mTOR kinases are crucial regulators of glioma cell growth, proliferation and survival (Akhavan et al., 2010). […] A strong inhibition was achieved by 1 μM with complete block of mTORC1/2 activities at 2 μM (FIG. 5B).
Since autophagy activation is considered as a cytoprotective factor that contribute to tumor survival when challenged by therapies, it is proposed that block of autophagy activation by NSC would further enhanced the cytotoxicity of dual TORC1/2 inhibitor AZD2014.

[2] = system: LC3B lipidation and p62/SQSTM1 in GSCs and GBM cells; assay: Immunoblot of autophagy markers after NSC, IR, TMZ; details: NSC with IR or/and TMZ
Description: (A) GBM stem-like cells, GSCTS576, and patient-derived xenograft cells, GBM44, were treated with NSC, IR or/and TMZ at the indicated concentrations and combinations for 72 hours. Thereafter, cells were analyzed for cellular viability. Data are shown as mean±SD, n=3 of biological replicates. #, Combination vs. TMZ, P<0.01; &, Combination vs. IR, P<0.01; *, Combination vs. NSC, P<0.01 (B) GSCTS576 and GBM44 cells were treated with NSC, IR or and TMZ with indicated concentration or does for 48 hours, stained with Annexin V/PI, and analyzed by flow cytometry; n=3 biological replicates. Data are shown as mean±SD. #, Combination vs. TMZ, P<0.01; &, Combination vs. IR, P<0.01; *, Combination vs. NSC, P<0.01. (C) TS576 GSCs and GBM44 with indicated treatments were collected and analyzed for levels of the indicated proteins. […]
To determine the effect of combination treatment with NSC185058 and irradiation (IR) or/and TMZ, stem-like glioma cells (GSC83) and patient-derived xenograft GBM (GBM43) cells, were treated with NSC185058, TMZ, IR or the combination of two or three treatments and examined cellular proliferation modulation. […] Toward this end, we analyzed protein expression of autophagy marker protein LC3B and p62/SQSTM1, an established autophagy substrate, DNA damage indicator γH2AFX/γH2AX and apoptosis indicator cleaved CASP3/caspase-3 in both tested cell lines.

S=C(Nc1ccccn1)c1ccccn1 [NSC185058, N-pyridin-2-yl-pyridine-2-carbothioamide]
apoptotic cells (Annexin V/PI) (GSC83 and GBM43 cells): more apoptotic cells than single treatments | mTOR signaling and ULK1 phosphorylation [1]: without affecting the mTOR signaling and ULK1 activity | sensitization to IR or/and TMZ (LC3B lipidation, p62) [2]: sensitized the tested cells to IR or/and TMZ by suppressing LC3B lipidation and increasing p62

Reference: US11793816B2, “Methods for enhancing cytotoxic cancer therapy through inhibition of ATG4B” (Northwestern University, priority 2019, dated 2023)
